Data reported in patent USRE47689E1, “Compounds for treating spinal muscular atrophy” (PTC Therapeutics, Inc., priority 2011, dated 2019).

Tests used:
Smn protein = Smn protein assay in human motor neurons; assay type: cell-based; details: human motor neurons derived from SMA iPS cells; increasing concentrations; 72 hours; confocal fluorescence microscopy
Description: Smn immunofluorescent confocal microscopy is used to quantify the level of Smn protein in human motor neurons treated with test compounds.
Protocol. Human motor neurons derived from SMA iPS cells (Ebert et al., Nature, 2009, […]; and, Rubin et al., BMC Biology, 2011, 9:42) are treated with test compound at various concentrations for 72 hours. The level of Smn protein in the cell nucleus is quantified using Smn immunostaining and confocal fluorescence microscopy essentially as described in Makhortova et al., Nature Chemical Biology, 2011, 7:544. The level of Smn protein in compound-treated samples is normalized to that in vehicle-treated samples and plotted as a function of the compound concentration.

[1] = system: full length and Δ7 SMN2 mRNAs; experiment: Endogenous SMN2 mRNA end-point semi-quantitative RT-PCR splicing assay in animal tissues; assay type: in vivo, mouse; details: C/C-allele SMA mice, brain and muscle, oral gavage twice per day for 10 days, agarose gel
Description: The endpoint reverse transcription-PCR (RT-PCR) splicing assay is used to quantify the levels of the full length and Δ7 SMN2 mRNAs in tissues from mice treated with test compound.
Protocol. C/C-allele SMA mice are treated by oral gavage two times per day for 10 days with test compounds in 0.5% HPMC and 0.1% Tween-80. Tissue samples are collected and snap frozen for RNA purification.
Tissue samples (20-40 mg) are homogenized in QIAzol Lysis Reagent for 2 minutes at 20 Hz in the TissueLyser II using one stainless steel bead. After addition of chloroform, the homogenate is separated into aqueous and organic phases by centrifugation. RNA partitioned to the upper, aqueous phase is extracted and ethanol is added to provide appropriate binding conditions. The sample is then applied to the RNeasy spin column from the RNeasy Mini Kit, where total RNA binds to the membrane. The RNA is eluted in RNase-free water then stored at −20° C.
SMN2 spliced products are identified using the following amplification primers in Table 8. These primers hybridize to a nucleotide sequence in exon 6 (SMN Forward D, SEQ ID NO. 13) (nucleotide 22 to nucleotide 46) and exon 8 (SMN Reverse C, SEQ ID NO. 12) common to human SMN1 and SMN2 mRNAs.
To synthesize cDNA, combine 1 μL of RNA solution (25-50 ng), 4 μL of 5× iScript reaction mix, 1 μL of reverse transcriptase, and 10 μL of water are combined and incubates 25° C. for 5 min followed by 42° C. for 30 min followed by 85° C. for 5 min. cDNA solution is stored at −20° C.
To perform endpoint PCR, 5 μL of cDNA, 0.2 μL of 100 μM forward primer, 0.2 μL of 100 μM reverse primer, and 22.5 μL of polymerase super mix are combined in a 96 well semiskirted PCR plate. PCR is carried out at the following temperatures for indicated time: Step 1: 94° C. (2 min), Step 2: 94° C. (30 sec), Step 3: 55° C. (30 sec), Step 4: 68° C. (1 min), then repeat Steps 2 to 4 for a total of 33 cycles, then hold at 4° C.
10 μL of each PCR sample is electrophoretically separated on a 2% agarose E-gel for 14 minutes, stained with ds DNA staining reagents (e.g., ethidium bromide) and visualized using a gel imager.

Structure (SMILES) | Smn protein in the nucleus (Smn protein) | SMN2 FL mRNA [1] | SMN2 Δ7 mRNA [1]
CC(C)NCCc1ccc2cc(-c3nc4c(Cl)cccc4s3)c(=O)oc2c1 [Cpd 35, 3-(4-chloro-1,3-benzothiazol-2-yl)-7-[2-(propan-2-ylamino)ethyl]-2H-chromen-2-one] | progressively more Smn protein in the nucleus | progressively more SMN2 FL mRNA | less SMN2 Δ7 mRNA
CCN1CCN(c2ccc3cc(-c4cn5cc(C)nc(C)c5n4)c(=O)oc3c2)C[C@@H]1C [Cpd 626, 3-(6,8-dimethylimidazo[1,2-a]pyrazin-2-yl)-7-[(3S)-4-ethyl-3-methylpiperazin-1-yl]-2H-chromen-2-one] | progressively more Smn protein in the nucleus | progressively more SMN2 FL mRNA | less SMN2 Δ7 mRNA
